Some test systems named below: COLO 205 colon; MDA-MB-435; OVCAR-4 ovarian; A498 renal; LOX IMVI melanoma; K-562 leukemia; IGROV1 ovarian; SN12C renal; SR leukemia; HCT-116 colon.
Assay in all cases: NCI anticancer screen, dose series, 48 h

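Step 1: Grow cells in 96-well plates. Step 2: Expose to compound for 48 hours at 5 concentrations. Step 3: Interpolate endpoints linearly; if unreached, use highest concentration. GI50 is the concentration that inhibits growth by half. At the TGI there is no net growth.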

Take `CN(CCCN1CCCC1)CCCN(C)C(=O)Cc1ccc(Cl)c(Cl)c1`: the TGI in the experiment with COLO 205 colon is 41.2 µM; with MDA-MB-435, 11.7 µM; in the experiment with OVCAR-4 ovarian it was greater than 96.1 µM; in the experiment with A498 renal, 28.1 µM; in the experiment with LOX IMVI melanoma, 27.9 µM; in the experiment on K-562 leukemia, 18.3 µM. The TGI in the experiment with IGROV1 ovarian was 67.8 µM; with SN12C renal, 70.2 µM; with SR leukemia, 28.2 µM; with HCT-116 colon, 39.3 µM.
As for `CC(NC(=O)c1ccc(OP(=O)(OCc2ccc([N+](=O)[O-])o2)N(C)CCCCCl)cc1)c1ccc(OCC2CCCCC2)c(C(N)=O)c1` (stereo not given), the TGI in the experiment with COLO 205 colon worked out at 6.24 µM; in the experiment on MDA-MB-435, 6.3 µM; with OVCAR-4 ovarian, 17.7 µM; in the experiment on A498 renal, 63.2 µM; in the experiment with LOX IMVI melanoma it was 5.43 µM; in the experiment on K-562 leukemia it was 18 µM. The TGI in the experiment with IGROV1 ovarian was 8.34 µM; with SN12C renal, 6.15 µM; with SR leukemia, 4.43 µM; in the experiment on HCT-116 colon it was 9.5 µM.
On to `Cc1ccc([N+](=O)[O-])cc1S(=O)(=O)Nc1ccc(C2=NN(C(=O)c3ccccc3)C(c3ccccc3O)C2)cc1` (stereo not given), for which the TGI in the experiment with COLO 205 colon is 31.9 µM; in the experiment with MDA-MB-435 it was greater than 100 µM; in the experiment on OVCAR-4 ovarian, 42.8 µM; in the experiment on A498 renal, 60.6 µM; in the experiment with LOX IMVI melanoma it was 45.6 µM; with K-562 leukemia it was greater than 100 µM. The TGI in the experiment on IGROV1 ovarian is 25.4 µM; in the experiment with SN12C renal, 33 µM; in the experiment on SR leukemia, greater than 100 µM; with HCT-116 colon, 28.4 µM.
On to `Nc1ccc(Cc2ccc(N)c(C(=O)O)c2)cc1C(=O)O`, for which the TGI in the experiment with COLO 205 colon, with MDA-MB-435, in the experiment with OVCAR-4 ovarian, with A498 renal, with LOX IMVI melanoma and in the experiment with K-562 leukemia was greater than 100 µM each time. The TGI with IGROV1 ovarian, in the experiment on SN12C renal, with SR leukemia and in the experiment on HCT-116 colon was greater than 100 µM each time.
`COc1ccc(-n2nc(C(=O)c3ccccc3)c3nn4c(=O)cc(-c5ccccc5)nc4nc32)cc1`: the GI50 was 29.1 µM in the experiment on COLO 205 colon; 51.9 µM in the experiment on MDA-MB-435; 30.5 µM in the experiment on OVCAR-4 ovarian; 66.2 µM in the experiment on A498 renal; 34.5 µM in the experiment on LOX IMVI melanoma; 40.5 µM in the experiment with K-562 leukemia. Moreover, the GI50 in the experiment on IGROV1 ovarian was 25.9 µM; in the experiment with SN12C renal, 41.7 µM; in the experiment on SR leukemia, 24.9 µM; in the experiment with HCT-116 colon it was greater than 100 µM. Besides, the TGI in the experiment on COLO 205 colon, with MDA-MB-435, in the experiment with OVCAR-4 ovarian, with A498 renal, in the experiment on LOX IMVI melanoma and in the experiment with K-562 leukemia was greater than 100 µM throughout. Further, the TGI in the experiment on IGROV1 ovarian, with SN12C renal, in the experiment on SR leukemia and with HCT-116 colon was greater than 100 µM each time.
Consider `COc1ccc2c3c([nH]c2c1)[C@H](C=C(C)C)N1C(=O)[C@@H]2CCCN2C(=O)[C@@H]1C3`, for which the TGI with COLO 205 colon, with MDA-MB-435, in the experiment with OVCAR-4 ovarian, in the experiment on A498 renal, in the experiment with LOX IMVI melanoma and in the experiment with K-562 leukemia was greater than 100 µM throughout. Besides, the TGI in the experiment with IGROV1 ovarian, in the experiment with SN12C renal, in the experiment on SR leukemia and in the experiment with HCT-116 colon was greater than 100 µM throughout.
Take `Clc1cccc(/C=c2\nc(-c3ccccc3)n3c2nc2ccccc23)c1`: the TGI in the experiment on COLO 205 colon, in the experiment with MDA-MB-435, in the experiment with OVCAR-4 ovarian, in the experiment with A498 renal, with LOX IMVI melanoma and with K-562 leukemia was greater than 100 µM throughout. Moreover, the TGI in the experiment on IGROV1 ovarian, in the experiment on SN12C renal, in the experiment with SR leukemia and with HCT-116 colon was greater than 100 µM each time.

These data come from PubChem BioAssay (NCI).
